The record followed here is patent US20250368633A1, “AZEPINE FUSED RING COMPOUND AS RIPK1 INHIBITOR AND USE THEREOF” (ARTIVILA BIOPHARMA, priority 2022, published 2025).

A value given as a limit tells only on which side of the number the result lay.

One assay addresses T1, RIPK1 kinase (Homo sapiens, UniProt Q13546).
T1 construct: purchased Promega VA7593
T1 sequence (Q13546 1-671): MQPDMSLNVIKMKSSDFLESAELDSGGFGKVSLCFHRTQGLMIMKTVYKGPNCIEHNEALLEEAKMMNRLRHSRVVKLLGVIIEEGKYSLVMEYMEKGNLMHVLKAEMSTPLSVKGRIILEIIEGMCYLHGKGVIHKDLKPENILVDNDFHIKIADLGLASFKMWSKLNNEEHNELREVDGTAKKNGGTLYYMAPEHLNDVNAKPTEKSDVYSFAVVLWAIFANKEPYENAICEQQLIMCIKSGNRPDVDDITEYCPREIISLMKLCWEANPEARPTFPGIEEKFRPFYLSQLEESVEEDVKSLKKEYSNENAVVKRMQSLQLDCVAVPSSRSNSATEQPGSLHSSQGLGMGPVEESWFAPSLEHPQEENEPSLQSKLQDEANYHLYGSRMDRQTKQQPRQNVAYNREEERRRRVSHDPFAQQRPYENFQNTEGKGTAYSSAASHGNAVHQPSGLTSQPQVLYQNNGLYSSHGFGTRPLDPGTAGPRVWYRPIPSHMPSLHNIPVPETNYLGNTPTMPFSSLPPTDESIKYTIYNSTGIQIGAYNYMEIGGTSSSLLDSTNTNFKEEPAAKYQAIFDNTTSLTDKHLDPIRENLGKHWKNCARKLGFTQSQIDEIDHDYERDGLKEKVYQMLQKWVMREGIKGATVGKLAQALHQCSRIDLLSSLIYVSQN
Kind of assay: In vitro RIPK1 kinase activity assay (ADP-Glo), inhibition by compounds at 1 μM. Conditions: compound 1 μM; ATP 10 μM; MBP substrate 100 μg/mL; read-out: RIPK1 kinase activity inhibition rate range. It is filed as biochemical. A digest of the protocol:
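Read by ADP-Glo chemiluminescence as percent inhibition: RIPK1 kinase, 15-min room-temperature compound preincubation, then 1-h reaction with MBP (100 μg/mL final) and ATP (10 μM final). Enzyme level was set by titration.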
For orientation: ADP-Glo first removes unused ATP, then detects ADP through luciferase.

Another assay has as its system U937 cells. The assay can be described thus: Inhibition rate of compound (1 μM) on necroptosis of U937 cells (TSZ-induced, CellTiter-Glo). It is filed as cell-based. Conditions: TSZ (hTNF-α, SM-164, Z-VAD-FMK) 20 hours. A digest of the protocol:
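Percent inhibition comes from ATP luminescence (CellTiter-Glo), referenced to wells without TSZ and wells with TSZ alone. The compound was added to U937 cells 15 min ahead of a TNF-α/SM-164/Z-VAD-FMK mix, followed by 20 h culture at 37° C, 5% CO2.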
Background: In ATP-based viability assays light output follows the ATP content of the culture.

For the molecule `CC(Cc1ccccc1)NC(=O)C(=O)N[C@H]1COc2ccc(C#CCCO)cc2N(C)C1=O` (mixture of isomers) [Example 37, N^1-((S)-7-(4-hydroxybut-1-yn-1-yl)-5-methyl-4-oxo-2,3,4,5-tetrahydrobenzo[b][1,4]oxazepin-3-yl)-N^2-(1-phenylpropan-2-yl)oxalamide], the inhibition at 1 µM on RIPK1 kinase was 50 to 74%. The “Inhibition rate range of compounds (1 μM) on U937 cell necroptosis” value (“Inhibition rate range of compounds” below) in the assay on U937 cells was “A (A: ≥90%)”.
For `CC(NC(=O)C(=O)N[C@H]1COc2ccc(C#CCCO)cc2N(C)C1=O)c1ccccc1` (mixture of isomers) [Example 41, N^1-((S)-7-(4-hydroxybut-1-yn-1-yl)-5-methyl-4-oxo-2,3,4,5-tetrahydrobenzo[b][1,4]oxazepin-3-yl)-N^2-(1-phenylethyl)oxalamide], the inhibition at 1 µM at RIPK1 kinase was not below 75%. The “Inhibition rate range of compounds” value in the assay with U937 cells was “A (A: ≥90%)”.
As to `CN1CCC(CC#Cc2ccc3c(c2)N(C)C(=O)[C@@H](NC(=O)C(=O)NCCc2ccccc2)CO3)C1=O` (mixture of isomers) [Example 82, N^1-((3S)-5-methyl-7-(3-(1-methyl-2-oxopyrrolidin-3-yl)prop-1-yn-1-yl)-4-oxo-2,3,4,5-tetrahydrobenzo[b][1,4]oxazepin-3-yl)-N^2-phenethyloxalamide], the inhibition at 1 µM on RIPK1 kinase was not below 75%. Also, the “Inhibition rate range of compounds” value in the assay with U937 cells is on record as “A (A: ≥90%)”.
For `CN1C(=O)[C@@H](NC(=O)C(=O)NCCc2cccc(F)c2)COc2ccc(C#CCN3CCC(O)C3)cc21` (mixture of isomers) [Example 113, N^1-(3-fluorophenethyl)-N^2-((3S)-7-(3-(3-hydroxypyrrolidin-1-yl)prop-1-yn-1-yl)-5-methyl-4-oxo-2,3,4,5-tetrahydrobenzo[b][1,4]oxazepin-3-yl)oxalamide], the inhibition at 1 µM on RIPK1 kinase was not below 75%. Moreover, the “Inhibition rate range of compounds” value in the assay with U937 cells is given as “A (A: ≥90%)”.
Taken in the same sequence, the figures for `C[C@@H](NC(=O)C(=O)N[C@H]1COc2ccc(C#CCN3CCC(O)C3)cc2N(C)C1=O)c1ccccc1` (mixture of isomers) [Example 126, N^1-((3S)-7-(3-(3-hydroxypyrrolidin-1-yl)prop-1-yn-1-yl)-5-methyl-4-oxo-2,3,4,5-tetrahydrobenzo[b][1,4]oxazepin-3-yl)-N^2-((R)-1-phenylethyl)oxalamide] were not below 75% and “A (A: ≥90%)”.
Taken in the same sequence, the figures for `CC(CNC(=O)C(=O)N[C@H]1COc2ccc(C#CCCO)cc2N(C)C1=O)c1ccccc1` (mixture of isomers) [Example 154, N^1-((S)-7-(4-hydroxybut-1-yn-1-yl)-5-methyl-4-oxo-2,3,4,5-tetrahydrobenzo[b][1,4]oxazepin-3-yl)-N^2-(2-phenylpropyl)oxalamide] were not below 75% and “A (A: ≥90%)”.
As for `CN1C(=O)[C@@H](NC(=O)C(=O)NCCc2ccccc2)COc2ccc(C#Cc3cccnc3)cc21` [Example 13, (S)—N^1-(5-methyl-4-oxo-7-(pyridin-3-ylethynyl)-2,3,4,5-tetrahydrobenzo[b][1,4]oxazepin-3-yl)-N^2-phenethyloxalamide], the inhibition at 1 µM on RIPK1 kinase is not below 75%. The “Inhibition rate range of compounds” value with U937 cells is listed as “A (A: ≥90%)”.
In the case of `CN1C(=O)[C@@H](NC(=O)C(=O)NCCc2ccccc2)COc2ccc(C#Cc3ccsc3)cc21` [Example 17, (S)—N^1-(5-methyl-4-oxo-7-(thiophen-3-ylethynyl)-2,3,4,5-tetrahydrobenzo[b][1,4]oxazepin-3-yl)-N^2-phenethyloxalamide], on RIPK1 kinase, the inhibition at 1 µM was not below 75%. In addition, in the assay on U937 cells, the “Inhibition rate range of compounds” value is reported as “A (A: ≥90%)”.
Turning to `CN1C(=O)[C@@H](NC(=O)C(=O)NCCc2ccccc2)COc2ccc(C#C[Si](C)(C)C)cc21` [Example 18, (S)—N^1-(5-methyl-4-oxo-7-((trimethylsilyl)ethynyl)-2,3,4,5-tetrahydrobenzo[b][1,4]oxazepin-3-yl)-N^2-phenethyloxalamide], the inhibition at 1 µM at RIPK1 kinase is not below 75%. Besides, the “Inhibition rate range of compounds” value with U937 cells is on record as “A (A: ≥90%)”.
In the case of `CC#Cc1ccc2c(c1)N(C)C(=O)[C@@H](NC(=O)C(=O)NCCc1ccccc1)CO2` [Example 19, (S)—N^1-(5-methyl-4-oxo-7-(prop-1-yn-1-yl)-2,3,4,5-tetrahydrobenzo[b][1,4]oxazepin-3-yl)-N^2-phenethyloxalamide], the inhibition at 1 µM at RIPK1 kinase was not below 75%. Further, in the assay with U937 cells, the “Inhibition rate range of compounds” value is given as “A (A: ≥90%)”.
Take `CN1C(=O)[C@@H](NC(=O)C(=O)NCCc2ccccc2)COc2ccc(C#CC3CCOCC3)cc21` [Example 21, (S)—N^1-(5-methyl-4-oxo-7-((tetrahydro-2H-pyran-4-yl)ethynyl)-2,3,4,5-tetrahydrobenzo[b][1,4]oxazepin-3-yl)-N^2-phenethyloxalamide]: the inhibition at 1 µM on RIPK1 kinase is not below 75%. The “Inhibition rate range of compounds” value with U937 cells is listed as “A (A: ≥90%)”.
Regarding `CN1C(=O)[C@@H](NC(=O)C(=O)NCCc2ccccc2)COc2ccc(C#Cc3cnn(C)c3)cc21` [Example 22, (S)—N^1-(5-methyl-7-((1-methyl-1H-pyrazol-4-yl)ethynyl)-4-oxo-2,3,4,5-tetrahydrobenzo[b][1,4]oxazepin-3-yl)-N^2-phenethyloxalamide], the inhibition at 1 µM at RIPK1 kinase is not below 75%. In addition, the “Inhibition rate range of compounds” value in the assay with U937 cells is “B (B: 50-89%)”.
`CN1C(=O)[C@@H](NC(=O)C(=O)NCCc2ccccc2)COc2ccc(C#CC3CCCNC3)cc21` (stereo partly drawn) [Example 24, N^1-((3S)-5-methyl-4-oxo-7-(piperidin-3-ylethynyl)-2,3,4,5-tetrahydrobenzo[b][1,4]oxazepin-3-yl)-N^2-phenethyloxalamide]: the inhibition at 1 µM on RIPK1 kinase fell in the range of 50 to 74%. In the assay on U937 cells, the “Inhibition rate range of compounds” value was “A (A: ≥90%)”.
Consider `CN1C(=O)[C@@H](NC(=O)C(=O)NCCc2ccccc2)COc2ccc(C#Cc3cnc4cccnn34)cc21` [Example 25, (S)—N^1-(7-(imidazo[1,2-b]pyridazin-3-ylethynyl)-5-methyl-4-oxo-2,3,4,5-tetrahydrobenzo[b][1,4]oxazepin-3-yl)-N^2-phenethyloxalamide], for which the inhibition at 1 µM at RIPK1 kinase was not below 75%. Also, in the assay on U937 cells, the “Inhibition rate range of compounds” value is given as “A (A: ≥90%)”.
Taken in the same sequence, the figures for `CN1C(=O)[C@@H](NC(=O)C(=O)NCCc2ccccc2)COc2ccc(C#CC(C)(C)O)cc21` [Example 29, (S)—N^1-(7-(3-hydroxy-3-methylbut-1-yn-1-yl)-5-methyl-4-oxo-2,3,4,5-tetrahydrobenzo[b][1,4]oxazepin-3-yl)-N^2-phenethyloxalamide] were not below 75% and “A (A: ≥90%)”.
For `CN1C(=O)[C@@H](NC(=O)C(=O)NCCc2ccccc2)COc2ccc(C#CCCO)cc21` [Example 31, (S)—N^1-(7-(4-hydroxybut-1-yn-1-yl)-5-methyl-4-oxo-2,3,4,5-tetrahydrobenzo[b][1,4]oxazepin-3-yl)-N^2-phenethyloxalamide], in that order: not below 75% and “A (A: ≥90%)”.
`CN1C(=O)[C@@H](NC(=O)C(=O)NCc2ccccc2)COc2ccc(C#CCCO)cc21` [Example 32, (S)—N^1-benzyl-N^2-(7-(4-hydroxybut-1-yn-1-yl)-5-methyl-4-oxo-2,3,4,5-tetrahydrobenzo[b][1,4]oxazepin-3-yl)oxalamide]: the inhibition at 1 µM on RIPK1 kinase is not below 75%. Further, in the assay with U937 cells, the “Inhibition rate range of compounds” value is given as “A (A: ≥90%)”.
`CN1C(=O)[C@@H](NC(=O)C(=O)NCCc2ccccc2F)COc2ccc(C#CCCO)cc21` [Example 33, (S)—N^1-(2-fluorophenethyl)-N^2-(7-(4-hydroxybut-1-yn-1-yl)-5-methyl-4-oxo-2,3,4,5-tetrahydrobenzo[b][1,4]oxazepin-3-yl)oxalamide]: the inhibition at 1 µM at RIPK1 kinase is not below 75%. In the assay with U937 cells, the “Inhibition rate range of compounds” value is “A (A: ≥90%)”.
In the case of `CN1C(=O)[C@@H](NC(=O)C(=O)NCCc2cccc(F)c2)COc2ccc(C#CCCO)cc21` [Example 34, (S)—N^1-(3-fluorophenethyl)-N^2-(7-(4-hydroxybut-1-yn-1-yl)-5-methyl-4-oxo-2,3,4,5-tetrahydrobenzo[b][1,4]oxazepin-3-yl)oxalamide], on RIPK1 kinase, the inhibition at 1 µM was in the range of 50 to 74%. In addition, the “Inhibition rate range of compounds” value in the assay on U937 cells is on record as “A (A: ≥90%)”.
With `CN1C(=O)[C@@H](NC(=O)C(=O)NCCc2ccc(F)cc2)COc2ccc(C#CCCO)cc21` [Example 35, (S)—N^1-(4-fluorophenethyl)-N^2-(7-(4-hydroxybut-1-yn-1-yl)-5-methyl-4-oxo-2,3,4,5-tetrahydrobenzo[b][1,4]oxazepin-3-yl)oxalamide], the inhibition at 1 µM at RIPK1 kinase fell in the range of 50 to 74%. Besides, the “Inhibition rate range of compounds” value in the assay on U937 cells is listed as “A (A: ≥90%)”.

A word on the inhibition: it is the drop in the measured response relative to a control, in per cent.
